From patent publication US7084158B2, “Substituted propargylamines” (Bayer Cropscience S.A., priority 2001, dated 2006)

How the values were obtained:
Type in all cases: in vivo
Parameters in all cases: key: compounds were considered to be active when, at a concentration of 500 ppm or less, they had an activity on the harmful organisms of 50% or more
Plutella maculipennis = experiment: Example K: sprayed white cabbage leaf, diamondback moth larvae mortality; conditions: 500 ppm or less, after 3 days
Protocol: A white cabbage leaf was sprayed with an aqueous solution of the formulated compound to be examined. After the spray coating had dried, the treated leaf was populated with larvae of the diamondback moth (Plutella maculipennis). After 3 days of storage at about 23° C., the effect of the compound on the larvae was determined (mortality). The compounds of the following examples were active: 60, 70, 1002, 1004, 1005, 1036, 197.

Ctenocephalides felis = experiment: Example M: cat fleas fed with treated cattle blood, mortality; conditions: 500 ppm or less; adult fleas fed blood-preparation mixture; after 48 hours
Protocol: The formulated compound was mixed with defibrinated cattle blood. 10 adult cat fleas (Ctenocephalides felis) were fed with this blood-preparation mixture. After 48 hours at about 38° C., the effect of the compound on the fleas was determined (mortality). The compounds of the following examples were active: 70, 1002, 1004, 1005, 1036, 60, 197, 1057.

Spodoptera exigua [1] = experiment: Example Y: cotton plants sprayed, cut leaves, sugar beet armyworm mortality; conditions: 500 ppm or less, leaves cut after drying, L2 larvae, after 4 days
Protocol: Cotton plants were sprayed with an aqueous solution of the formulated compound to be examined. After drying, leaves were cut off, placed into a Petri dish and populated with 5 L2 larvae of the sugar beet armyworm (Spodoptera exigua). After 4 days of storage at about 23° C., the mortality among the larvae was determined. The following examples were active: 1036, 70, 60, 1047, 197.

[2] = system: Leptinotarsa decemlineata; experiment: Example L: potato leaves and larvae sprayed, Colorado beetle mortality; conditions: 500 ppm or less, after 4 days
Protocol: Potato leaves were populated with larvae of the Colorado beetle (Leptinotarsa decemlineata). Leaves and larvae were then sprayed with an aqueous solution of the formulated compound to be examined. After 4 days of storage at about 25° C., the effect of the compound on the larvae was determined (mortality). The compounds of the following examples were active: 60, 70, 1002, 1004, 1005, 1036, 1047, 197.

Carpocapsa pomonella [3] = experiment: Example AA: insect diet mixed with compound, codling moth L1 larvae mortality; conditions: 500 ppm or less, compound mixed into insect diet, after 14 days
Protocol: Insect diet was mixed with an aqueous solution of the formulated compound to be examined and populated with 10 L1 larvae of the codling moth (Carpocapsa pomonella). After 14 days of storage at about 23° C., the mortality among the larvae was determined. The following examples were active: 70, 197.

Rhipicephalus sanguineus = experiment: Example AF: treated filter paper, tick larvae mortality; conditions: 500 ppm or less, after 24 hours
Protocol: The formulated compound was pipetted onto filter paper. After the solvent had evaporated, 20–30 tick larvae (Rhipicephalus sanguineus) were placed onto the filter paper. After 24 hours at about 25° C., the effect of the compound on the ticks was determined (mortality). The following examples were active: 197, 1057.

Heliothis virescens [4] = experiment: Example B: tobacco budworm eggs on filter paper/insect diet, mortality; conditions: 500 ppm or less; 24-hour-old eggs dipped, diet treated; after 6 days
Carpocapsa pomonella [5] = experiment: Example D: dipped apples, codling moth L1 larvae mortality; conditions: 500 ppm or less, after 14 days
Protocol: Apples were dipped into an aqueous solution of the formulated compound to be examined. The apples were then populated with 10 L1 larvae of the codling moth (Carpocapsa pomonella). After 14 days of storage at about 25° C., the effect of the compound on the larvae was determined (mortality). The compounds of the following examples were active: Nos. 14, 15, 17, 18, 70, 1007, 1008, 1009, 1036, 1038, 197.

[6] = system: Diabrotica undecimpunctata; experiment: Example AC: treated soil, southern corn rootworm eggs mortality; conditions: 500 ppm or less, eggs added after 0d, 21d and 42d, after 2 weeks
Protocol: An aqueous solution of the formulated compound to be examined was mixed with soil. After 0d, 21d and 42d, eggs of the southern corn rootworm (Diabrotica undecimpunctata) were placed together with 2 pre-swollen maize corns into a dish, covered with the treated soil and moisted with 10 ml of water. Soil and eggs were placed in a greenhouse (23° C., 60% relative atmosphere humidity). After 2 weeks of storage, the effect of the compound on the eggs and any larvae hatched therefrom was determined (mortality). The following examples were active: 70, 60, 197, 204.

[7] = system: Diabrotica undecimpunctata; experiment: Example C: corn rootworm eggs with maize corn, mortality; conditions: 500 ppm or less; 4-5-day-old eggs; after 6 days
Heliothis virescens [8] = experiment: Example AB: cotton leaves with larvae sprayed, tobacco budworm mortality; conditions: 500 ppm or less; cotton leaves with L2 larvae sprayed; after 4 days
Protocol: Cotton leaves were placed into a Petri dish, populated with 5 L2 larvae of the American tobacco budworm (Heliothis virescens) and sprayed with an aqueous solution of the formulated compound to be examined. After 4 days of storage at about 25° C., the mortality among the larvae was determined. The following examples were active: 70, 1047, 197.

Nilaparvata lugens = experiment: Example A: rice leaf dip, leafhopper larvae mortality; conditions: 500 ppm or less; L3 larvae on dipped rice plants; after 6 days
Protocol: The leaves of 12 rice plants having a stem length of 8 cm were dipped for 5 seconds into an aqueous solution of the formulated compound to be examined. After the solution had run off, the rice plants treated in this manner were placed into a Petri dish and populated with about 20 larvae (L3 stage) of the rice leafhopper species Nilaparvata lugens. The Petri dish was closed and then stored in a climatized chamber (16 hours of light/day, 25° C., 40–60% relative atmospheric humidity). After 6 days of storage, the mortality among the leafhopper larvae was determined. The compounds of the following examples were active: Nos. 29, 32, 42, 43, 51, 70, 84, 1002, 1004, 1005, 1040, 180, 184, 193, 197, 203, 209, 1059, 264, 265, 1066.

[9] = system: Trialeurodes vaporariorum; experiment: Example AD: bush beans sprayed, white fly larvicidal action; conditions: 500 ppm or less; bush beans sprayed after hatching; after 11 days
Protocol: For oviposition, bush beans (Phaseolus vulgaris) were populated for 48 hours with adults of the white fly (Trialeurodes vaporariorum). After the larvae had hatched, the plants were sprayed to run-off point with an aqueous solution of the formulated compound to be examined. After 11 days, the larvicidal action was determined. The following examples were active: 1036, 70, 60, 1040, 197.

Spodoptera exigua [10] = experiment: Example Z: cotton leaves with larvae sprayed, sugar beet armyworm mortality; conditions: 500 ppm or less; cotton leaves populated then sprayed; L2 larvae; after 4 days
Protocol: Cotton leaves were populated with 5 L2 larvae of the sugar beet armyworm (Spodoptera exigua) and then sprayed with an aqueous solution of the formulated compound to be examined. After 4 days of storage at about 23° C., the mortality among the larvae was determined. The following examples were active: 1036, 70, 60, 1047, 197.

Spodoptera exigua [11] = experiment: Example S: treated L2 larvae and insect diet, sugar beet army worm mortality; conditions: 500 ppm or less, after 6 days
Protocol: A Petri dish whose bottom was covered with filter paper and which contains about 5 ml of insect diet is prepared. Five L2 larvae of sugar beet army worm (Spodoptera exigua) were counted into a small beaker. 200 μl of an aqueous solution of the formulated compound to be examined were pipetted into the beaker. The treated larvae were then poured into the Petri dish and a further 200 μl of the aqueous solution were distributed over the insect diet. The Petri dish was closed and then stored at 25° C. in a climatized chamber. After 6 days of storage, the mortality among the larvae was determined. The following examples were active: 1036, 175, 184, 1051, 1054, 1055, 234, 1057, 1059, 1060, 1063, 243, 245, 251, 257, 259, 266, 1065, 1067, 290, 291.

Aedes aegypti = experiment: Example AG: microtiter plate, yellow fever mosquito larvicidal activity; conditions: 500 ppm or less, after 3 days
Aphis fabae = experiment: Example R: field bean, root-systemic activity on black bean aphids; conditions: 500 ppm or less; solution pipetted into bottle; after 3 and 6 days
Protocol: Germinated field bean seeds (Vicia faba) with radicles were transferred into brown glass bottles filled with tap water. Four milliliters of an aqueous solution of the formulated compound to be examined were pipetted into the brown glass bottle. The field bean was then heavily populated with approximately 100 black bean aphids (Aphis fabae). Plant and animals were then stored in a climatized chamber (16 hours of light/day, 25° C., 40–60% relative atmospheric humidity). After 3 and 6 days of storage, the root-systemic activity of the compound on the aphids was determined (mortality). The following examples were active: 184, 186, 305, 220, 265.

Cc1cc(C(F)(F)F)cc(C#CCN2CCC(C)CC2)n1 [Example 197]
active: effect on the larvae (mortality) (Plutella maculipennis) | effect on the fleas (mortality) (Ctenocephalides felis) | mortality among the larvae (Spodoptera exigua [1]) | effect on the larvae (mortality) [2] | mortality among the larvae (Carpocapsa pomonella [3]) | effect on the ticks (mortality) (Rhipicephalus sanguineus) | effect on the eggs and hatched larvae (mortality) (Heliothis virescens [4]) | effect on the larvae (mortality) (Carpocapsa pomonella [5]) | effect on the eggs and hatched larvae (mortality) [6] | effect on the eggs and hatched larvae (mortality) [7] | mortality among the larvae (Heliothis virescens [8]) | mortality among the leafhopper larvae (Nilaparvata lugens) | larvicidal action [9] | mortality among the larvae (Spodoptera exigua [10])

CC1CCN(CC#Cc2cc(C(F)(F)F)cc(Cl)n2)CC1.Cl [Example 1057]
active: effect on the fleas (mortality) (Ctenocephalides felis) | effect on the ticks (mortality) (Rhipicephalus sanguineus) | effect on the eggs and hatched larvae (mortality) (Heliothis virescens [4]) | mortality among the larvae (Spodoptera exigua [11]) | larvicidal activity (Aedes aegypti) | effect on the eggs and hatched larvae (mortality) [7]

CC1CCN(CC#Cc2cccc(-c3ccc([N+](=O)[O-])cc3)c2)CC1 [Example 220]
active: root-systemic activity on the aphids (mortality) (Aphis fabae)
